According to patent US11466044B2 (WAYNE STATE UNIVERSITY, priority 2017, dated 2022):
pIC50: −log10 of the molar value. In brackets after ≈: the same amount, converted by molar mass.

What was measured:
[1] = tested on: mitochondrial ribosome (human chimeric); format: biochemical; conditions: ribosomes with a human mitochondrial decoding site; read-out: IC50 Mitoch.
Excerpt: (§1) The antiribosomal activity of these compounds was investigated with cell-free translation assays using both wild type bacterial ribosomes and hybrid ribosomes carrying eukaryotic decoding A sites enabling the prediction of selectivity.

[2] = tested on: cytosolic ribosome (human chimeric); format: biochemical; conditions: ribosomes with a human cytosolic decoding site; read-out: IC50 Cytosolic
Excerpt: as §1

[3] = tested on: wild type bacterial ribosomes; test: in-vitro translation assay, bacterial ribosomes; format: biochemical; conditions: Mycobacterium smegmatis ribosomes; read-out: IC50 Bacterial
Excerpt: as §1

[4] = tested on: E coli wild type; test: MIC by broth microdilution, wild type E coli; format: cell-based; conditions: for MIC AG001 E. coli WT: clinical isolate AG001, WT; for MIC AG055 E. coli WT: clinical isolate AG055, WT
[5] = tested on: P aeruginosa; test: MIC by broth microdilution, P aeruginosa isolates; format: cell-based, Pseudomonas aeruginosa; conditions: for MIC AG031 P. aer. APH(3′)-II: clinical isolate AG031, APH(3′)-II; for MIC AG032 P. aer. APH(3′)-II: clinical isolate AG032, APH(3′)-II
[6] = tested on: A1555G mutant mitochondrial ribosome (human chimeric); test: in-vitro translation assay, human chimeric ribosomes, A1555G mutant mitochondrial decoding site; format: biochemical; conditions: human mitochondrial decoding site with A1555G point mutation; read-out: IC50 Mitoch. A1555G
Excerpt: as §1

[7] = tested on: rabbit reticulocyte ribosomes; test: in-vitro translation assay, rabbit reticulocyte ribosomes; format: biochemical; conditions: mammalian cytosolic ribosomes (rabbit)
[8] = tested on: E coli carrying specific resistance determinants; test: MIC by broth microdilution, E coli carrying specific resistance determinants; format: cell-based; conditions: clinical isolate AG003, AAC(3)-II
[9] = tested on: MRSA; test: MIC by broth microdilution, MRSA isolates; format: cell-based; conditions: for MIC AG038 MRSA: clinical isolate AG038; for MIC AG039 MRSA AAC(6′)-I ANT(4′)-I: clinical isolate AG039, AAC(6′)-I ANT(4′)-I; for MIC AG042 MRSA AAC(6′)-I ANT(4′)-I APH(2′): clinical isolate AG042, AAC(6′)-I ANT(4′)-I APH(2′); for MIC AG044 MRSA: clinical isolate AG044

SMILES | pIC50 [1] | pIC50 [2] | pIC50 [3] | MIC AG001 E. coli WT [4] [µg/mL] | MIC AG055 E. coli WT [4] [µg/mL] | MIC AG031 P. aer. APH(3′)-II [5] [µg/mL] | MIC AG032 P. aer. APH(3′)-II [5] [µg/mL] | pIC50 [6] | pIC50 [7] | MIC AG003 E. coli AAC(3)-II [8] [µg/mL] | MIC AG038 MRSA [9] [µg/mL] | MIC AG039 MRSA AAC(6′)-I ANT(4′)-I [9] [µg/mL] | MIC AG042 MRSA AAC(6′)-I ANT(4′)-I APH(2′) [9] [µg/mL] | MIC AG044 MRSA [9] [µg/mL]
CCNC1C(OC2C(N)CC(N)C(O)C2OC2OC(CO)C(OC3OC(CN)C(O)C(O)C3N)C2O)OC(CN)C(O)C1O (stereo not shown) [DC-172] | 4.96 | 4.37 | 8.00 | 1 to 2 | 1 (≈ 1.56 µM) | >64 | >64 | 5.80 | 4.35 | 1 (≈ 1.56 µM) | 0.5 (≈ 0.778 µM) | >32 | >32 | 1 (≈ 1.56 µM)
NC[C@H]1O[C@H](O[C@H]2[C@H](O[C@@H]3O[C@H](CO)[C@@H](O)[C@H]3O)[C@@H](O)[C@H](N)C[C@@H]2N)[C@H](N)C[C@@H]1O [DC047] | 3.49 | 3.53 | 7.00 | 8 to 16 | 8 to 16 | 4 (≈ 9.12 µM) | 4 (≈ 9.12 µM) | 3.92 | 3.80 | 8 (≈ 18.2 µM) | 8 (≈ 18.2 µM) | >128 | >128 | 8 to 16
